Reference: US6921840B1 (The Trustees of the University of Pennsylvania, priority 1999, dated 2005)
Like-named read-outs stand apart in the source and are kept apart here. One block for each compound: values may come before it.

Tests used:
[1] = molecular target: T1, norepinephrine transporter (NET) expressed in LLC-PK1 cells (Homo sapiens, UniProt P23975); assay: [125I]IPT competition binding, LLC-NET membrane homogenates
T1 construct: host or cells: LLC-PK1 (LLC-NET)
From the text: (§1) Three monoamine transporters expressed respectively in a common parental cell line, LLC-PK, (referred to as LLC-DAT. LLC-NET and LLC-SERT) were kindly provided by Dr. G. Rudnick of Yale University.

[2] = molecular target: T2, dopamine transporter (DAT) expressed in LLC-PK1 cells (Rattus norvegicus, UniProt P23977); assay: [125I]IPT competition binding, LLC-DAT membrane homogenates
T2 construct: host or cells: LLC-PK1 (LLC-DAT)
From the text: as §1

[3] = molecular target: T3, serotonin transporter (SERT) expressed in LLC-PK1 cells (Rattus norvegicus, UniProt P31652); assay: [125I]IPT competition binding, LLC-SERT membrane homogenates
T3 construct: host or cells: LLC-PK1 (LLC-SERT)
From the text: as §1

[4] = Biodistribution in rats after i.v. injection of radioactive tracer; assay type: in vivo, rat
Experimental: Three or four rats per group were used for each biodistribution study. While under ether anesthesia, 0.2 ml of a saline solution containing 10 μCi of radioactive tracer was injected into the femoral vein. The rats were sacrificed at the time indicated by cardiac excision while under ether anesthesia. Organs of interest were removed and weighed, and the radioactivity was counted using a Packard automatic gamma counter (Model 5000). The percent dose per organ was calculated by a comparison of the tissue counts to counts of 1% of the initial dose (100 times diluted aliquots of the injected material) measured at the same time.
Regional brain distribution in rats was measured after an i.v. injection of the radioactive tracer. Samples from different brain regions [cortex (CX), striatum (ST), hippocampus (HP), cerebellum (CB) and hypothalamus (HY)] were dissected, weighed and counted. The percentage dose/g of each sample was calculated by comparing sample counts with the counts of the diluted initial dose described above. The ratio of specific binding (SB) in each region was obtained by dividing the difference of each region from the cerebellum (percentage dose/g) with that of the cerebellum [(region-CB)/CB].

[5] = [125I]IPT ligand, LLC-PK1 membranes, read-out: Inhibition constant (Ki) NET
[6] = [125I]IPT ligand, LLC-PK1 membranes, read-out: Inhibition constant (Ki) DAT
[7] = [125I]IPT ligand, LLC-PK1 membranes, read-out: Inhibition constant (Ki) SERT

T1 sequence (P23975 whole entry): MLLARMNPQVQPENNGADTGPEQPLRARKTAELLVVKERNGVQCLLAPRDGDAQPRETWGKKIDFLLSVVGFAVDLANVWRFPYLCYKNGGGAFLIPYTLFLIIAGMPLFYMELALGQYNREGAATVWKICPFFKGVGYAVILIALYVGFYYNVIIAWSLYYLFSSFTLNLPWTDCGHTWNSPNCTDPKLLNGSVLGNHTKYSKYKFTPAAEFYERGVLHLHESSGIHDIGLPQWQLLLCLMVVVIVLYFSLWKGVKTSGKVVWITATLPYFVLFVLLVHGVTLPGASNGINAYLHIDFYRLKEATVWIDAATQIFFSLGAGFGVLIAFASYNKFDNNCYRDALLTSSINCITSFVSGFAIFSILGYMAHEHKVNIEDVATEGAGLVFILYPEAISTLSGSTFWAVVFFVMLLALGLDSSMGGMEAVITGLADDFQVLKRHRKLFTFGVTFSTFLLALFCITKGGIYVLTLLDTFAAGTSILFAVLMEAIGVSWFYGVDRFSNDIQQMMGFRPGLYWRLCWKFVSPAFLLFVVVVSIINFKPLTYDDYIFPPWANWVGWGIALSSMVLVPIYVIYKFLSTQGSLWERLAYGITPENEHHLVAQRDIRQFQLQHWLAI
T2 sequence (P23977 whole entry): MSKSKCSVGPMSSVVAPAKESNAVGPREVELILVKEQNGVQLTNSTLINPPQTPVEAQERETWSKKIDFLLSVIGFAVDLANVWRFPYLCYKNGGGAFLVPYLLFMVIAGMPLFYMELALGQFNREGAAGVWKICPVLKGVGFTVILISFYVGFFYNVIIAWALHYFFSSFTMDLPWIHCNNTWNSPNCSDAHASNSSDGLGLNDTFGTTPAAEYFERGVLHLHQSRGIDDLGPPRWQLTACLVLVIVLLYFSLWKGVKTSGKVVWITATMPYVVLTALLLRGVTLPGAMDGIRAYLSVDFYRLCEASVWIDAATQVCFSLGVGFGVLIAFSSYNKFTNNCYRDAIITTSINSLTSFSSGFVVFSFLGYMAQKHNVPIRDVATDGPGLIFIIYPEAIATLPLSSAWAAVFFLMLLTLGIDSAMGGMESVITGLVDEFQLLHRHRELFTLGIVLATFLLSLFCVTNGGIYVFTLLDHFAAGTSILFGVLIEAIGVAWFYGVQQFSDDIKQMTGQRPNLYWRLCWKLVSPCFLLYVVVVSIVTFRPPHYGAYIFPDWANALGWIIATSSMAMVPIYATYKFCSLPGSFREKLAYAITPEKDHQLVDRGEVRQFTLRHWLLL
T3 sequence (P31652 whole entry): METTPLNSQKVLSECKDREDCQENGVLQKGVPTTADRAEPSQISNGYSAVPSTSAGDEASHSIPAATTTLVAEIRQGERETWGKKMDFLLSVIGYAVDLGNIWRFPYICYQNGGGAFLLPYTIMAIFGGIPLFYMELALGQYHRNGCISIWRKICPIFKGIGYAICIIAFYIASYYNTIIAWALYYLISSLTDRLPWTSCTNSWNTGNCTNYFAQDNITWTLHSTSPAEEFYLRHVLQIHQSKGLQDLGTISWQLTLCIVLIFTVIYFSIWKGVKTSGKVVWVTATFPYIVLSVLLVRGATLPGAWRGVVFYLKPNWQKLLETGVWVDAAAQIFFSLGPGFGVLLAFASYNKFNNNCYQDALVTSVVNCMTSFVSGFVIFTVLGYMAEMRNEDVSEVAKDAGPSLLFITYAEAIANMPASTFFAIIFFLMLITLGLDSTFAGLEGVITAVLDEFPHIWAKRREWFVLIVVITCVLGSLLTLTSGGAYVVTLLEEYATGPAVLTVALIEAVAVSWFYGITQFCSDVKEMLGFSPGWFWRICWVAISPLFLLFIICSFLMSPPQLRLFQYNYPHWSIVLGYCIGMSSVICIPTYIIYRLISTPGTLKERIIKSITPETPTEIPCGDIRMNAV

Ki [1, 5]: 420 ± 62.5 nM
Ki [2, 6]: 20.4 ± 1.55 nM
Ki [3, 7]: 2.42 ± 0.06 nM
SMILES: CC(=O)OCc1cc(Br)ccc1Sc1ccccc1CN(C)C [K68]

Ki [3, 7]: < 0.01 nM
SMILES: CNCc1ccccc1Sc1ccc(I)cc1CO [K99032]

Ki [2, 6]: 11100 ± 1100 nM
Ki [3, 7]: 0.234 nM
SMILES: CCOCc1cc(I)ccc1Sc1ccccc1CN(C)C [K119]

Ki [3, 7]: 27.3 ± 6.9 nM
SMILES: Cc1ccccc1Nc1ccc(I)cc1CN(C)C [K99037]

SMILES: CN(C)Cc1ccccc1Sc1ccc(I)cc1N [K99028]
Ki [1, 5]: 699 ± 80 nM
Ki [3]: ~0.013 nM

Ki [3, 7]: > 1000 nM
SMILES: CN(C)Cc1ccccc1Sc1ccc(Br)cn1 [K102]

Ki [3, 7]: 139 ± 15 nM
SMILES: Cc1ccccc1Nc1ccc(N)cc1CN(C)C [K99036]

Ki [3, 7]: 35 ± 2.5 nM
SMILES: CN(C)Cc1cc(N)ccc1Cc1ccccc1 [K99034]

Ki [2, 6]: 14700 ± 2200 nM
Ki [3, 7]: 1.9 nM
SMILES: CN(C)Cc1ccccc1Sc1ccc(Br)cc1[N+](=O)[O-] [K110]

Ki [1, 5]: 382 ± 46 nM
Ki [2, 6]: 9300 ± 200 nM
Ki [3, 7]: 0.33 ± 0.06 nM
SMILES: CCCOCc1cc(I)ccc1Sc1ccccc1CN(C)C [K120]

Ki [1, 5]: 35.4 nM
Ki [2, 6]: > 10000 nM
Ki [3, 7]: < 0.1 nM
SMILES: CN(C)Cc1ccccc1Sc1ccc(Br)cc1CO [brominated derivative, 5-bromo-2-[[2-2[(dimethylamino)methyl]phenyl]thio]benzyl alcohol]

Ki [2, 6]: 1700 ± 600 nM
Ki [3, 7]: 0.038 ± 0.01 nM
SMILES: CN(C)Cc1ccccc1Sc1ccccc1N [K109]

Ki [1, 5]: 165 ± 9 nM
Ki [3, 7]: ~0.075 nM
SMILES: CN(C)Cc1ccccc1Sc1ccc(Br)cc1NO [K99025]

SMILES: CN(C)Cc1ccccc1Sc1ccc(Br)cc1N [K99026]
Ki [1]: 214 ± 68 nM
Ki [3, 7]: ~0.022 nM

Ki [3, 7]: < 0.01 nM
SMILES: CN(C)Cc1ccccc1Oc1ccc(I)cc1 [K99039]

SMILES: CN(C)Cc1ccccc1Sc1ccc(Cl)cc1CO [K99033]
Ki [3]: < 0.01 nM

SMILES: COCc1cc(I)ccc1Sc1ccccc1CN(C)C [K104]
Ki [1]: 155 ± 18.7 nM
Ki [2]: 11000 ± 200 nM
Ki [3]: 0.02 nM

SMILES: CN(C)Cc1ccccc1Oc1ccc([125I])cc1CO [[^125I]ODAM, 5-[123-Iodo or 125-iodo]-2-(2-dimethylaminomethylphenoxy)-benzyl alcohol]
% dose/organ BLOOD ([4]; 2 min): 3.009 ± 0.212 % dose/organ
% dose/organ BRAIN ([4]; 2 min): 2.033 ± 0.087 % dose/organ
% dose/organ THYROID ([4]; 2 min): 0.080 ± 0.019 % dose/organ
Regional brain distribution (ratio/CB) CEREBELLUM ([4]; 2 min): 1.000
Regional brain distribution (ratio/CB) CORTEX ([4]; 2 min): 1.436
Regional brain distribution (ratio/CB) HIPPOCAMPUS ([4]; 2 min): 0.983
Regional brain distribution (ratio/CB) HYPOTHALAMUS ([4]; 2 min): 1.221
Regional brain distribution (ratio/CB) STRIATUM ([4]; 2 min): 0.906
% dose/organ BLOOD ([4]; 30 min): 3.517 ± 0.504 % dose/organ
% dose/organ BRAIN ([4]; 30 min): 1.489 ± 0.146 % dose/organ
% dose/organ THYROID ([4]; 30 min): 0.039 ± 0.006 % dose/organ
Regional brain distribution (ratio/CB) CEREBELLUM ([4]; 30 min): 1.000
Regional brain distribution (ratio/CB) CORTEX ([4]; 30 min): 1.771
Regional brain distribution (ratio/CB) HIPPOCAMPUS ([4]; 30 min): 1.563
Regional brain distribution (ratio/CB) HYPOTHALAMUS ([4]; 30 min): 1.860
Regional brain distribution (ratio/CB) STRIATUM ([4]; 30 min): 1.590
% dose/organ BLOOD ([4]; 60 min): 3.296 ± 0.373 % dose/organ
% dose/organ BRAIN ([4]; 60 min): 0.785 ± 0.231 % dose/organ
% dose/organ THYROID ([4]; 60 min): 0.028 ± 0.005 % dose/organ
Regional brain distribution (ratio/CB) CEREBELLUM ([4]; 60 min): 1.000
Regional brain distribution (ratio/CB) CORTEX ([4]; 60 min): 1.690
Regional brain distribution (ratio/CB) HIPPOCAMPUS ([4]; 60 min): 1.791
Regional brain distribution (ratio/CB) HYPOTHALAMUS ([4]; 60 min): 1.858
Regional brain distribution (ratio/CB) STRIATUM ([4]; 60 min): 1.605
% dose/organ BLOOD ([4]; 120 min): 1.868 ± 0.186 % dose/organ
% dose/organ BRAIN ([4]; 120 min): 0.267 ± 0.066 % dose/organ
% dose/organ THYROID ([4]; 120 min): 0.034 ± 0.006 % dose/organ
Regional brain distribution (ratio/CB) CEREBELLUM ([4]; 120 min): 1.000
Regional brain distribution (ratio/CB) CORTEX ([4]; 120 min): 1.672
Regional brain distribution (ratio/CB) HIPPOCAMPUS ([4]; 120 min): 1.846
Regional brain distribution (ratio/CB) HYPOTHALAMUS ([4]; 120 min): 1.630
Regional brain distribution (ratio/CB) STRIATUM ([4]; 120 min): 1.617
% dose/organ BLOOD ([4]; 240 min): 0.976 ± 0.073 % dose/organ
% dose/organ BRAIN ([4]; 240 min): 0.065 ± 0.017 % dose/organ
% dose/organ THYROID ([4]; 240 min): 0.041 ± 0.038 % dose/organ
Regional brain distribution (ratio/CB) CEREBELLUM ([4]; 240 min): 1.000
Regional brain distribution (ratio/CB) CORTEX ([4]; 240 min): 1.322
Regional brain distribution (ratio/CB) HIPPOCAMPUS ([4]; 240 min): 1.648
Regional brain distribution (ratio/CB) HYPOTHALAMUS ([4]; 240 min): 1.343
Regional brain distribution (ratio/CB) STRIATUM ([4]; 240 min): 1.539
